Earlier results as cited in patent US9382205B2, “Processes for the manufacture of a pharmaceutically active agent” (H. Lundbeck A/S, priority 2009, dated 2016).
pKi: −log10 of the molar value. Blank lines part the entries; values can stand above or below the compound they belong to.

Legend:
[1] = Rogers et al. 1999
Alzheimer's patients = details: first report
human 5-HT6 receptor = details: from Roth et al. 1994

Compound: COc1ccc(NS(=O)(=O)c2sc3ccc(Cl)cc3c2C)cc1N1CCNCC1 [SB-271046]
spatial alternation operant behavior test (aged rats): improvements
performance in the Morris water maze [1]: improved performance

Compound: O=S(=O)(c1ccccc1)c1cnc2c(N3CCNCC3)cccc2c1 [SB-742457]
clinical benefit (Alzheimer's patients): of clinical benefit

pKi (human 5-HT6 receptor): 7.19
Compound: CN(C)CCC=C1c2ccccc2CCc2ccccc21 [amitriptyline]
